Measurements reported in patent US10765680B2, “Combination of a MCL-1 inhibitor and a taxane compound, uses and pharmaceutical compositions thereof” (priority 2017, dated 2020).

Columns and labels:
Assay type in all cases: cell-based
Details in all cases: single agent, read-out: Abs IC50
[1] = test system: NCI-H23 lung cancer cell line; assay: 72 hours CellTiter-Glo proliferation assay, NCI-H23
Experimental: (§1) Compounds were dissolved in 100% DMSO (Sigma, Catalog # D2438-50 ML) at a stock concentration of 10 mM and stored at −20° C. until use. Compounds were arrayed in 2 ml deep 96-well plates (Greiner bio-one, catalog number 780271) serially diluted 3-fold. Compound 1 was used over a concentration range of 0.0-10.0 μM. Paclitaxel was used over a concentration range of 0.0-1.0 μM in breast cancer cells and 0.0-2.0 μM range in lung cancer cells.
(§2) All cell lines were purchased from the American Type Culture Collection and cultured according to vendor recommendations. […] All cell lines were determined to be free of mycoplasma contamination by a PCR detection assay performed at Idexx Radil (Columbia, Mo., USA) and authenticated by SNP analysis. […] Cells were expanded to T-75 flasks and assessed for viability using a Beckman-Coulter ViCell counter prior to plating. […]
(§3) Cell proliferation was measured in 72 hours CellTiter-Glo™ (CTG) assays and all results shown are the result of at least triplicate measurements. […] After 72 hours of compound treatment the effects of compounds on cell proliferation was determined using the CellTiter-Glo™ Luminescent Cell Viability Assay (Promega, Catalog # G7573). This is a homogeneous method to determine the number of viable cells in culture based on quantitation of the ATP present, which signals the presence of metabolically active cells. […]

[2] = test system: Cal-148 breast cancer cell line; assay: 72 hours CellTiter-Glo proliferation assay, Cal-148
Experimental: as §1, §2, §3

[3] = test system: NCI-H522 lung cancer cell line; assay: 72 hours CellTiter-Glo proliferation assay, NCI-H522
Experimental: as §1, §2, §3

[4] = test system: HCC1937 breast cancer cell line; assay: 72 hours CellTiter-Glo proliferation assay, HCC1937
Experimental: as §1, §2, §3

[5] = test system: BT-20 breast cancer cell line; assay: 72 hours CellTiter-Glo proliferation assay, BT-20
Experimental: as §1, §2, §3

[6] = test system: HCC1954 breast cancer cell line; assay: 72 hours CellTiter-Glo proliferation assay, HCC1954
Experimental: as §1, §2, §3

SMILES: COc1ccccc1-c1nccc(COc2ccccc2C[C@@H](Oc2ncnc3sc(-c4ccc(F)cc4)c(-c4ccc(OCCN5CCN(C)CC5)c(Cl)c4C)c23)C(=O)O)n1 [Compound 1, (2R)-2-{[(5Sa)-5-{3-chloro-2-methyl-4-[2-(4-methylpiperazin-1-yl)ethoxy]phenyl}-6-(4-fluorophenyl)thieno[2,3-d]pyrimidin-4-yl]oxy}-3-(2-{[2-(2-methoxyphenyl)pyrimidin-4-yl]methoxy}phenyl)propanoic acid]
- IC50 [1]: 160 nM
- IC50 [2]: 1330 nM
- IC50 [3]: 713 nM
- IC50 [4]: 137 nM
- IC50 [5]: 653 nM
- IC50 [6]: 158 nM
